How the values were obtained:
VEGFR II (KDR kinase) = VEGFR II (KDR kinase) (Homo sapiens, UniProt P35968); assay: Inhibition of KDR kinase activity (33P-ATP, poly-(Glu4Tyr) filter assay); assay type: biochemical; settings: 10 minutes at room temperature; poly-(Glu4Tyr) substrate
Procedure: Solutions Required for the Tests
Stock solution A: 3mM ATP in water pH 7.0 (−70° C.)
Stock solution B: g-33P-ATP 1 mCi/100 μl
Stock solution C: poly-(Glu4Tyr) 10 mg/ml in water
Substrate solvent: 10 mM DTT, 10 mM manganese chloride 100 mM magnesium chloride
Enzyme solution: 120 mM Tris/HCl, pH 7,5,10 μM sodium vanadium oxide
Inhibition of KDR- and FLT-1 kinase activity in the presence of the compounds according to the invention
10 μl of substrate mix [10 μl vol ATP stock solution A+25 μCi g-33P-ATP (ca. 2.5 μl of stock solution B)+30 μl poly-(Glu4Tyr) stock solution C+1.21 ml substrate solvent], 10 μl inhibitor solution [substances corresponding to the dilutions, as a control 3% DMSO in substrate solvent] and 10 μl enzyme solution [11.25 μg enzyme stock solution (KDR or FLT-1 kinase) are diluted at 4° C. in 1.25 ml enzyme solution], are added to a tapering microtitre plate (without protein binding). The mixture is mixed thoroughly and incubated for 10 minutes at room temperature. Subsequently, 10 μl of stop solution (250 mM EDTA, pH 7.0) is added, mixed and 10 μl of the solution transferred to a P 81 phosphocellulose filter. It is subsequently washed several times in 0.1 M phosphoric acid. The filter paper is dried, coated with MeltiLex and measured in a MicroBeta counter.
The IC50 values are determined from the concentration of inhibitor required to inhibit the phosphate incorporation to 50% of the uninhibited incorporation after deducting the reference value (EDTA-stopped reaction).

VEGFR II (KDR kinase), sequence (P35968 20-1356): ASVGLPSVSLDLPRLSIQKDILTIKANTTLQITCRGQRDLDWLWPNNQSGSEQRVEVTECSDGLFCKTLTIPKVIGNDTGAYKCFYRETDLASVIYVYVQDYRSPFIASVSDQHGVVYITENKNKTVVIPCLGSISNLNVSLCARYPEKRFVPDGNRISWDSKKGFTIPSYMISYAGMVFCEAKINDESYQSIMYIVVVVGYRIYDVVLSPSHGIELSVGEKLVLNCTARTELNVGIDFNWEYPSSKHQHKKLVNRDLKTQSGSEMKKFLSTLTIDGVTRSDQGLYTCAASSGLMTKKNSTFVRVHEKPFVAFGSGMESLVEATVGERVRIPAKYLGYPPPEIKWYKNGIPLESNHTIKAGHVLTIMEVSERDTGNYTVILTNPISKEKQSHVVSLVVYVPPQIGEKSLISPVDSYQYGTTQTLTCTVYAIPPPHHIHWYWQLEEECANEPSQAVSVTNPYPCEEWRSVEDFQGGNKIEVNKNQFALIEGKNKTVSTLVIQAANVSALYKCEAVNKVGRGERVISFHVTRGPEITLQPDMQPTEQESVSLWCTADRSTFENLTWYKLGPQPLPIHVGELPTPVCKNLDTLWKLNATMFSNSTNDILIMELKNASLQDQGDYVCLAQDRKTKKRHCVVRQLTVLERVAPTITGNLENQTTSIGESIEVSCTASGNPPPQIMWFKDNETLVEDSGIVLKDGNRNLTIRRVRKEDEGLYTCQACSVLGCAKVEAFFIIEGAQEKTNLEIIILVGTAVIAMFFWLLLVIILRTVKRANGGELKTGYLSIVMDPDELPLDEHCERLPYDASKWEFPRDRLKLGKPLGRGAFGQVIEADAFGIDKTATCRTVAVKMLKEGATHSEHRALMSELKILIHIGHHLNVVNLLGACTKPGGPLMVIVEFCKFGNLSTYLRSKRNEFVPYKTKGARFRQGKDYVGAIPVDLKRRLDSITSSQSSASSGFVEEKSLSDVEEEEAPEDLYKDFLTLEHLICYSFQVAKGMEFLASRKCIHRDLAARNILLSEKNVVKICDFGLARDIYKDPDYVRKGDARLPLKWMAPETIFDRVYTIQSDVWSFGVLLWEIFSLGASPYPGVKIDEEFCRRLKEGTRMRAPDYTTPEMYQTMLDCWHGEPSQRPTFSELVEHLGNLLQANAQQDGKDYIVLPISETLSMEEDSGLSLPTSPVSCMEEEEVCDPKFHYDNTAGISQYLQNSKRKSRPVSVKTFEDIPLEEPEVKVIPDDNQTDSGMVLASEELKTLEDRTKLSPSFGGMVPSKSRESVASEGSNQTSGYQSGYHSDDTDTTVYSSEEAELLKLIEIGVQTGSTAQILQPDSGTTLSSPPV

IC50 (VEGFR II (KDR kinase)) [nM]	melting point [°C]	Compound
500	–	CC(C)CC(C)NC(=O)c1ccccc1NCc1ccncc1 (stereo not drawn) [Example 1.23]
39	118.4	CC(C)(C)[C@H]1CC[C@H](NC(=O)c2ccccc2NCc2ccncc2)CC1 [Example 1.8]
200	–	CCCCCCCCCCNC(=O)c1ccccc1NCc1ccncc1 [Example 1.14]
1000	65.2	O=C(NCCN1CCCCC1)c1ccccc1NCc1ccncc1 [Example 1.27]
50	–	CC(C)(C)CCNC(=O)c1ccccc1NCc1ccncc1 [Example 1.19]
80	103 to 104	O=C(NC1CCCCCCC1)c1ccccc1NCc1ccncc1 [Example 1.4]
